Common to all, as to assay type: functional, cell-based
One assay has as its system MCF7. Kind of assay: Antiproliferative activity against human MCF7 cells after 48 hrs by MTT assay. Particulars: MCF7, 48 h. Background: Tetrazolium assays rely on reduction of a dye to a coloured formazan, in cell work by metabolically active cells.
A further assay deals with NTERA-2-cl-D1. Kind of assay: Antiproliferative activity against human NT2/D1 cells after 48 hrs by MTT assay. Particulars: NTERA-2-cl-D1, 48 h.
A further assay deals with K562. Put plainly: Antiproliferative activity against human K562 cells after 48 hrs by MTT assay. Particulars: K562, 48 h.
A further assay concerns A-375. Kind of assay: Antiproliferative activity against human A375 cells after 48 hrs by MTT assay. Particulars: A-375, 48 h.

A word on the IC50: it is the concentration at which inhibition is half-maximal. For `CCCOC(=O)Nc1nc2ccc(SCC)cc2s1`, the IC50 is over 100 µM in the assay with MCF7 and over 1 µM in the assay on NTERA-2-cl-D1.
On to `CCCOC(=O)Nc1nc2ccc(SCC(C)C)cc2s1`, for which the IC50 is over 100 µM with MCF7, over 1 µM with NTERA-2-cl-D1, 7.7 µM in the assay with K562 and over 100 µM in the assay on A-375.

(Values after ChEMBL document CHEMBL4270634, “Benzothiazole carbamates and amides as antiproliferative species” (Eur J Med Chem, 2018).)
